According to publication PMC10048853 (International Journal of Molecular Sciences, 2023):
Where two headings read alike, the source gives them in different places.

Key:
Assay type in all cases: binding, Tritirachium album limber
[1] = target: T1, proteinase K (PK) (Parengyodontium album, UniProt P06873); assay: Fluorescence quenching of proteinase K by MYR/MYT (Stern–Volmer, double-logarithmic and Van't Hoff analysis); settings: for Stern–Volmer constant Ksv: 3.46 μM PK, pH 8.0; for fluorescence quenching rate constant Kq: τ0 1 × 10^−8 s; for enthalpy change ∆H: Van't Hoff equation, 290, 300, 310 K; for fluorescence quenching process (mechanism): from Kq versus 2 × 10^10 L·mol^−1·s^−1; for Kd: double logarithmic equation, read-out: binding constant KA (converted)
T1 construct: It is a single-chain protein consisting of 279 amino acid residues and has a molecular weight of 28,930 Da; purchased Jiuding Chemicals (Shanghai, China)
Text: Fluorescence spectroscopy is an effective method used to investigate conformational changes of proteins and binding parameters of ligands to fluorophore residues of proteins such as Trp, Tyr or Phe. PK contains two Trp residues (Trp8 and Trp212), which make it possible to emit fluorescence. […] The process by which this phenomenon occurs is called fluorescence quenching, which is the result of the altered microenvironment of PK. To eliminate the interference of fluorescence quenching from the inner filter effect, the experiments were corrected for fluorescence intensity using Equation (1). (1) Fcorr=Fobs×e^(Aex+Aem)/2 where Fcorr and Fobs are the fluorescence emission intensity values of the corrected and pre-corrected systems, respectively. Aex and Aem are the UV–Vis absorption intensities of quencher and PK at excitation and emission wavelengths, respectively.
To investigate the differences in the fluorescence quenching patterns of the PK-MYR and PK-MYT complexes, the Stern–Volmer equation (Equation (2)) was used for analysis.
Fluorescence quenching could be categorized into two processes, namely dynamic quenching and static quenching. Dynamic quenching occurs when the quencher collides with biological macromolecules, while static quenching is caused by the formation of complexes. For the dynamic process, the increase in Ksv along with the increase in temperature is expected, and the opposite is seen for the static quenching process. […] Consequently, we know that the combination of PK and MYR/MYT could form PK-MYR and PK-MYT complexes, leading to the static quenching mechanism.
Normally, the maximum collisional quenching constant Kq is about 2 × 10^10 L·mol^−1·s^−1 for small molecule quenchers and biomolecules.
The binding constants and the number of binding sites can be calculated by using a double logarithmic equation [20, 21] (Equation (3)). (3) log[(F0−F)/F]=logKA+nAlog[Q] where KA represents the binding constant between the biomolecule and the quencher, and nA implies the number of binding sites between the quencher and the fluorophor. […] It could be proposed that the binding constant of PK-MYT is larger than that of PK-MYR at the temperature of 290 K, and these two complexes share a similar binding site number n around one.
(4) lnKA=−ΔH/RΤ+ΔS/R (5) ΔG=−RTInKA=ΔH−TΔS where R is the molar gas constant with a general value of 8.314 J·mol^−1·K^−1. ∆H and ∆S are the enthalpy and entropy changes during the fluorescence quenching, respectively. The ∆G in Equation (5) is the Gibbs free energy change in the reaction. In general, the interaction between quenchers and fluorophors can be explained by four forces, including hydrogen bonding, van der Waals forces, electrostatic forces, and hydrophobic interactions. The sign and magnitude of ∆H and ∆S can be used to distinguish the binding forces and properties of the complexes. When ∆H and ∆S are positive, hydrophobic interactions dominate; when both ∆H and ∆S are negative, they can be explained as hydrogen bonding and van der Waals forces; when ∆H and ∆S are very low negative or positive values, there exist electrostatic interactions.
(§1) A Cary Eclipse fluorescence spectrometer (Varian, Palo Alto, CA, USA) was used to determine specific changes in the fluorescence emission of PK at different temperatures. All measurements were recorded at an excitation wavelength of 278 nm and the emission wavelength of 290–450 nm. The excitation and emission slits were adjusted to 5 nm. In synchronous fluorescence measurements, ∆λ was set to 60 and 15 nm.

[2] = target: T1, proteinase K (PK); assay: Förster resonance energy transfer (FRET) between PK (donor) and ligand (acceptor); settings: 290 K; PK and ligand 3.46 μM
Text: The distance and energy transfer between two chromophores, commonly known as the donor and the acceptor, may be computed by the Förster resonance energy transfer (FRET) theory. […] The energy transfer efficiency and binding distance were estimated according to Equation (6). (6) E=1−F/F0=RC^6/RC^6+r^6 where E is the energy transfer efficiency between the donor and the acceptor, r is the binding distance between the donor and the acceptor, and RC is the critical distance when the energy transfer efficiency is 50%, the value of which can be calculated using Equation (7). (7) RC^6=8.8×10^−25(K^2⋅Φ⋅n^−4⋅J) where K^2 is the spatial orientation factor associated with the geometry of the dipole donor and acceptor and generally takes the value of 2/3. Φ is the fluorescence quantum yield of the donor. The symbol n is the average refractive index of the medium and usually takes the value of 1.336 as the average value of water and organic matter. J is the spectral overlap integral between the fluorescence emission spectrum of the donor and the absorption spectrum of the acceptor, and the value is calculated by Equation (8). (8) J=∑(FD(λ)⋅ε(λ)⋅λ^4⋅Δλ)/∑(FD(λ)⋅Δλ) where FD(λ) is the corrected fluorescence intensity of the donor in the wavelength range, ε(λ) is the molar absorption constant of the acceptor at the wavelength, and ∆λ is the span of the wavelength. Following the FRET theory, the main factors affecting the energy transfer efficiency include the fluorescence production of the donor, the overlap of the fluorescence emission spectrum of the donor with the UV–Vis absorption spectrum of the acceptor, and the binding distance between the donor and the acceptor that must be within a specified range of 1 to 10 nm.
Förster resonance energy transfer (FRET) was tracked by overlapping PK emission spectrum (donor) with MYR or MYT absorption spectrum (acceptor). A concentration of 3.46 μM PK was chosen for the fluorescence emission spectroscopy measurements.

[3] = target: T1, proteinase K (PK); assay: Site-tagged competition experiments with ibuprofen and cytisine; settings: for Ksv of free PK: no site marker; for Ksv of PK–cytisine complex as % of that of free PK: site marker cytisine; for Ksv of PK–ibuprofen complex as % of that of free PK: site marker ibuprofen
Text: To determine the binding site of PK, two typical ligands including ibuprofen and cytisine were chosen to perform competitive binding experiments. […] The site-labeling experiments were still performed using Equations (1) and (2) for correction and data analysis, respectively. […] It has been well known that neutral compounds such as ibuprofen and cytisine are likely to bind with proteins through hydrophobic interactions and hydrogen binding. […] This is consistent with the results obtained from the thermodynamic calculations.
For in site labeling competition experiments, an agent such as ibuprofen or cytisine of 3.46 μM was first mixed with PK. […] The excitation wavelengths for PK–ibuprofen and PK–cytisine were 265 and 280 nm, respectively. Fluorescence spectra were analyzed using the Stern–Volmer equation.

[4] = target: T1, proteinase K (PK); assay: Synchronous fluorescence spectroscopy of PK with ligand; settings: 300 K, ligand increased from 0.0 to 25.0 μM; for maximum emission wavelength of PK, synchronous fluorescence (Figure 6B,D): peak near 274 nm; for maximum emission wavelength of PK, synchronous fluorescence (Figure 6A / 6C): peak near 279 nm
Description: Synchronous fluorescence spectroscopy studies were performed to observe changes in the molecular environment of Tyr residues and Trp residues in the host structure, which are mainly responsible for fluorescence emission. Therefore, we used the characteristic information of Tyr and Trp residues, ∆λ = 15 nm and ∆λ = 60 nm, respectively, to probe the changes in the PK-MYR and PK-MYT complexes.
as §1

[5] = site marker cytisine 3.46 μM, room temperature, 1 h
[6] = site marker ibuprofen 3.46 μM, room temperature, 1 h

T1 sequence (P06873 106-384): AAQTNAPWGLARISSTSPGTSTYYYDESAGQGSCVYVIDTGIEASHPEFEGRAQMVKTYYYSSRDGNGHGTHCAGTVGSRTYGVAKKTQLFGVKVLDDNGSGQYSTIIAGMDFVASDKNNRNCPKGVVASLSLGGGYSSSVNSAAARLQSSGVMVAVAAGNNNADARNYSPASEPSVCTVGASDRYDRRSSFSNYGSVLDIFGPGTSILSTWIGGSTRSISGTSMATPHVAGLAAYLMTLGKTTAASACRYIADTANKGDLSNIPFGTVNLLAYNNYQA

Compound | Gibbs free energy change ∆G ([1]; T 290 K) [kcal/mol] | number of binding sites nA ([1]; T 290 K) | Stern–Volmer constant Ksv ([1]; T 290 K) | fluorescence quenching rate constant Kq ([1]; T 290 K) | Gibbs free energy change ∆G ([1]; T 300 K) [kcal/mol] | number of binding sites nA ([1]; T 300 K) | Stern–Volmer constant Ksv ([1]; T 300 K) | fluorescence quenching rate constant Kq ([1]; T 300 K) | Gibbs free energy change ∆G ([1]; T 310 K) [kcal/mol] | number of binding sites nA ([1]; T 310 K) | Stern–Volmer constant Ksv ([1]; T 310 K) | fluorescence quenching rate constant Kq ([1]; T 310 K) | enthalpy change ∆H [1] [kcal/mol] | fluorescence quenching process (mechanism) [1] | critical distance RC [2] [nm] | energy transfer efficiency E [2] | Ksv of free PK [3] [L/mol] | Ksv of PK–cytisine complex as % of that of free PK [3] [%] | Stern–Volmer equation quenching constant KSV [3, 5] | Ksv of PK–ibuprofen complex as % of that of free PK [3] [%] | other results
Myricitrin [MYT] | -6.558 | 1.1 | 2.20 10^4 L·mol^−1 | 2.20 10^12 L·mol^−1·s^−1 | -6.018 | 1.0 | 2.06 10^4 L·mol^−1 | 2.06 10^12 L·mol^−1·s^−1 | -5.28 | 0.9 | 1.88 10^4 L·mol^−1 | 1.88 10^12 L·mol^−1·s^−1 | -25.098 | static | 3.42 | 0.128 | 20600 | 38.14 | 0.78 10^4 L·mol^−1 | 61.52 | Stern–Volmer equation quenching constant KSV [3, 6]: 1.27 10^4 L·mol^−1; Stern–Volmer equation quenching constant KSV ([3]; site marker: blank (free PK)): 2.06 10^4 L·mol^−1; maximum emission wavelength of PK, synchronous fluorescence (Figure 6B,D) [4]: 274.0 to 276.0 nm; maximum emission wavelength of PK, synchronous fluorescence (Figure 6A / 6C) [4]: 279.0 to 280.0 nm
O=c1c(O)c(-c2cc(O)c(O)c(O)c2)oc2cc(O)cc(O)c12 [MYR, Myricetin] | -6.601 | 1.0 | 3.57 10^4 L·mol^−1 | 3.57 10^12 L·mol^−1·s^−1 | -6.03 | 0.9 | 2.46 10^4 L·mol^−1 | 2.46 10^12 L·mol^−1·s^−1 | -5.442 | 0.9 | 1.90 10^4 L·mol^−1 | 1.90 10^12 L·mol^−1·s^−1 | -23.42 | static | 3.61 | 0.105 | 24600 | 70.73 | 1.74 10^4 L·mol^−1 | 69.51 | Kd ([1]; T 290 K): 16.9 µM; Kd ([1]; T 300 K): 40.5 µM; Kd ([1]; T 310 K): 114 µM; binding distance r [2]: 5.11 nm; Stern–Volmer equation quenching constant KSV [3, 6]: 1.71 10^4 L·mol^−1; Stern–Volmer equation quenching constant KSV ([3]; site marker: blank (free PK)): 2.46 10^4 L·mol^−1; maximum emission wavelength of PK, synchronous fluorescence (Figure 6B,D) [4]: no shift; maximum emission wavelength of PK, synchronous fluorescence (Figure 6A / 6C) [4]: 279.0 nm
